According to patent publication US11981658B2, “Substituted aminopyridine compounds as EGFR inhibitors” (YUHAN CORPORATION, priority 2021, dated 2024):
Where two headings read alike, the source gives them in different places.

Key:
EGFR Del19/C797S = EGFR Del19/C797S (Homo sapiens, UniProt P00533, C797S/DEL746-750); assay: Biochemical EGFR kinase inhibition assay (Lance Ultra TR-FRET), double mutant del19/C797S
Summary of the method: (§1)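 Step 1: compound in kinase buffer, 0.003–10 μM. Step 2: kinase reaction 1 h at room temperature. Step 4: TR-FRET read at 615/665 nm; IC50 calculated.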

EGFR L858R/C797S = EGFR L858R/C797S (Homo sapiens, UniProt P00533, C797S/L858R); assay: Biochemical EGFR kinase inhibition assay (Lance Ultra TR-FRET), double mutant L858R/C797S
Summary of the method: as §1

EGFR Del19/T790M/C797S = EGFR Del19/T790M/C797S (Homo sapiens, UniProt P00533, C797S/DEL746-750/T790M); assay: Biochemical EGFR kinase inhibition assay (Lance Ultra TR-FRET), triple mutant del19/T790M/C797S
Chain of EGFR Del19/T790M/C797S (P00533 with tags, fused parts or gaps DEL746-750/T790M/C797S): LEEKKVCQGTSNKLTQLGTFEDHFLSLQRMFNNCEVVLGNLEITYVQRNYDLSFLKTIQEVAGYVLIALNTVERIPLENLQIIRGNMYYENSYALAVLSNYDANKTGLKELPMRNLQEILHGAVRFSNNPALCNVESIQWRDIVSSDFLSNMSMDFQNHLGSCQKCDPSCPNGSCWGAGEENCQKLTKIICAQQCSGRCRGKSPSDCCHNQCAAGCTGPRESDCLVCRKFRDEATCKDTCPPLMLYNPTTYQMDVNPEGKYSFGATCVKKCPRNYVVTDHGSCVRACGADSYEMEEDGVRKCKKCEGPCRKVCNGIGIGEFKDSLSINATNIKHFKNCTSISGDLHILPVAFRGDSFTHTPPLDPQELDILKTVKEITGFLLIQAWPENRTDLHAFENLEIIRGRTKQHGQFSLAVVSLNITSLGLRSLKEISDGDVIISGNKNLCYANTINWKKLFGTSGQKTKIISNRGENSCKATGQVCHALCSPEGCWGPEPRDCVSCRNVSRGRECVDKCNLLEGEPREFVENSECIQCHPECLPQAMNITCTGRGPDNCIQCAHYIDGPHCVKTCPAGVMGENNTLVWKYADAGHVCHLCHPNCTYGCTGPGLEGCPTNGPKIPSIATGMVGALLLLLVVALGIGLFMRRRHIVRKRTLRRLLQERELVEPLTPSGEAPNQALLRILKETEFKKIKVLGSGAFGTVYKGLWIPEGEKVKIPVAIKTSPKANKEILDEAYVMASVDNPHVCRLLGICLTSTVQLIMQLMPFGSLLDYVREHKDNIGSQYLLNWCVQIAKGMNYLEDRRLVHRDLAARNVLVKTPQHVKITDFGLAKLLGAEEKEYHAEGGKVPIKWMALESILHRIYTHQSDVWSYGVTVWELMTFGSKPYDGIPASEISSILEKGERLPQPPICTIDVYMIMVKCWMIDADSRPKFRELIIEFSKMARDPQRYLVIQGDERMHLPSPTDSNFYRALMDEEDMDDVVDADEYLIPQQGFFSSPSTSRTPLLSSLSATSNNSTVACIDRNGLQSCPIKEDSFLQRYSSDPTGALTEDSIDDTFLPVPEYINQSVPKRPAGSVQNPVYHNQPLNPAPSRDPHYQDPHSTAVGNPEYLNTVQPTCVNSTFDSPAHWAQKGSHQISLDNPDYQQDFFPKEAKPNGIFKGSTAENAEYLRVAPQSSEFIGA
Summary of the method: as §1

EGFR L858R/T790M/C797S = EGFR L858R/T790M/C797S (Homo sapiens, UniProt P00533, C797S/L858R/T790M); assay: Biochemical EGFR kinase inhibition assay (Lance Ultra TR-FRET), triple mutant L858R/T790M/C797S
Chain of EGFR L858R/T790M/C797S (P00533 25-1210 T790M/C797S/L858R): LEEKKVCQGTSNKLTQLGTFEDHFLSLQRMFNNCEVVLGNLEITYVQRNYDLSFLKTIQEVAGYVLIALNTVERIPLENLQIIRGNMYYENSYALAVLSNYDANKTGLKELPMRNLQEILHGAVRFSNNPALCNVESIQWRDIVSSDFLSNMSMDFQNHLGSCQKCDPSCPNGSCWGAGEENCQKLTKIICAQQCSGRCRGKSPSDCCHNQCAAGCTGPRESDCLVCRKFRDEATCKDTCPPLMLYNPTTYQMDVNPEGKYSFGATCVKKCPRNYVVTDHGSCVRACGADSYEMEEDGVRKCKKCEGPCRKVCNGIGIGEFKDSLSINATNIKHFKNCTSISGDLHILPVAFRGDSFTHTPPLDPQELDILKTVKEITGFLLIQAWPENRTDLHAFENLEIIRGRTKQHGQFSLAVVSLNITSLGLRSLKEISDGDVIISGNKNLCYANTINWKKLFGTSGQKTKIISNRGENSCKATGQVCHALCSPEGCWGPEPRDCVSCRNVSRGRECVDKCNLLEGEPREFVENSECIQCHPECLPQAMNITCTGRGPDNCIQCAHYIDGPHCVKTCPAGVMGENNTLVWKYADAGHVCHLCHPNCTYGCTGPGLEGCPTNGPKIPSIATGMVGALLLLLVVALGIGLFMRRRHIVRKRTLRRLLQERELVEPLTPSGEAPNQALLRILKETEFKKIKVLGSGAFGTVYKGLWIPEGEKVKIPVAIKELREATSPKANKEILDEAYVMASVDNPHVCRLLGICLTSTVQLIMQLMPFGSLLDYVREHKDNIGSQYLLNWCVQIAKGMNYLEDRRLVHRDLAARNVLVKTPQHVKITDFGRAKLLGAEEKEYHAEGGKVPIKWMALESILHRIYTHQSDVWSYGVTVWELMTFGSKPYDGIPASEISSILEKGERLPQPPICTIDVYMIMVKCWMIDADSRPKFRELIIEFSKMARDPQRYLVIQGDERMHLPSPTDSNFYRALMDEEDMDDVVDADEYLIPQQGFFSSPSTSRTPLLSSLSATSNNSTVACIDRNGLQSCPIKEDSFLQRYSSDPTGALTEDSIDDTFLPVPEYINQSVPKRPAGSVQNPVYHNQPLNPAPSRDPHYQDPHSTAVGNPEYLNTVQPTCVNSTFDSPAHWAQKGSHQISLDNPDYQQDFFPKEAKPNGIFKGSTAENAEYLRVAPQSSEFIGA
Summary of the method: as §1

EGFR wildtype (WT) = EGFR wildtype (WT) (Homo sapiens, UniProt P00533); assay: Biochemical EGFR kinase inhibition assay (Lance Ultra TR-FRET), wildtype
Chain of EGFR wildtype (WT) (P00533 25-1210): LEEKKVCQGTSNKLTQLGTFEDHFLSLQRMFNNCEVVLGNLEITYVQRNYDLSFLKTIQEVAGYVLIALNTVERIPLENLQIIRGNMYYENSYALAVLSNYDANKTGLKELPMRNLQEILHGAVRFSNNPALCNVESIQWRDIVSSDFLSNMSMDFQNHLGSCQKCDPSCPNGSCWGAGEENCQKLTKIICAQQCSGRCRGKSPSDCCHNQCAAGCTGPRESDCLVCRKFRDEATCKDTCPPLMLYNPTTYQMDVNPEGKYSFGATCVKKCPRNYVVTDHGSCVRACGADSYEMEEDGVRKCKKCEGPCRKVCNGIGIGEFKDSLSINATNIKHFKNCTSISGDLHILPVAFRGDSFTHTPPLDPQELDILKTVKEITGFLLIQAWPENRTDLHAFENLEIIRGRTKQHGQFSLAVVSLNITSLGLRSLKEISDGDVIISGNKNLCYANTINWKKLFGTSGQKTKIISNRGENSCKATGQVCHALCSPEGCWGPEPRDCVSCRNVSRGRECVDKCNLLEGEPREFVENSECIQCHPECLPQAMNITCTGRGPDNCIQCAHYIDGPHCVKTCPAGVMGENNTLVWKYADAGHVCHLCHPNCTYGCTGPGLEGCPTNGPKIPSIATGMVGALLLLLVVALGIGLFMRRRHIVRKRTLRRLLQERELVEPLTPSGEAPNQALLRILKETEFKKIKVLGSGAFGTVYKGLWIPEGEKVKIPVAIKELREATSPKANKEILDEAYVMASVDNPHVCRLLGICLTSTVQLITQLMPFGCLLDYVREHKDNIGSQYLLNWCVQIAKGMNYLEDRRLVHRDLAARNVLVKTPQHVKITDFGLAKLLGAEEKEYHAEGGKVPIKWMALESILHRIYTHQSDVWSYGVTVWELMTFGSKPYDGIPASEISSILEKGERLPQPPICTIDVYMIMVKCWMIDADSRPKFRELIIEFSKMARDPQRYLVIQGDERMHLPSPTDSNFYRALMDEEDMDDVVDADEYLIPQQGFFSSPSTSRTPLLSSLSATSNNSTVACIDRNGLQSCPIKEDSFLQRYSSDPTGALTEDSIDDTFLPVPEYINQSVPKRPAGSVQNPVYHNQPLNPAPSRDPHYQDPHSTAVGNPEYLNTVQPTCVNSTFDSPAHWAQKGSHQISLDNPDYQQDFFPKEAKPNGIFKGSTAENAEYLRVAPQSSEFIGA
Summary of the method: as §1

[1] = ATP at Km, read-out: IC50 Del19/C797S (nM), Km ATP
[2] = IC50 Del19/C797S (nM), 100 μM ATP
[3] = ATP at Km, read-out: IC50 L858R/C797S (nM), Km ATP
[4] = IC50 L858R/C797S (nM), 100 μM ATP
[5] = IC50 Del19/T790M/C797S (nM), 100 μM ATP
[6] = IC50 L858R/T790M/C797S (nM), 100 μM ATP
[7] = ATP at Km, read-out: IC50 WT (nM), Km ATP
[8] = Km ATP, read-out: IC50 Del19/C797S (nM) Km ATP
[9] = Km ATP, read-out: IC50 L858R/C797S (nM) Km ATP
[10] = Km ATP, read-out: IC50 Del19/T790M/C797S (nM) Km ATP
[11] = Km ATP, read-out: IC50 L858R/T790M/C797S (nM) Km ATP
[12] = Km ATP, read-out: IC50 WT (nM) Km ATP
[13] = ATP at Km, read-out: IC50 Del19/T790M/C797S (nM), Km ATP
[14] = ATP at Km, read-out: IC50 L858R/T790M/C797S (nM), Km ATP

Chain of EGFR Del19/C797S (P00533 with tags, fused parts or gaps DEL746-750/C797S): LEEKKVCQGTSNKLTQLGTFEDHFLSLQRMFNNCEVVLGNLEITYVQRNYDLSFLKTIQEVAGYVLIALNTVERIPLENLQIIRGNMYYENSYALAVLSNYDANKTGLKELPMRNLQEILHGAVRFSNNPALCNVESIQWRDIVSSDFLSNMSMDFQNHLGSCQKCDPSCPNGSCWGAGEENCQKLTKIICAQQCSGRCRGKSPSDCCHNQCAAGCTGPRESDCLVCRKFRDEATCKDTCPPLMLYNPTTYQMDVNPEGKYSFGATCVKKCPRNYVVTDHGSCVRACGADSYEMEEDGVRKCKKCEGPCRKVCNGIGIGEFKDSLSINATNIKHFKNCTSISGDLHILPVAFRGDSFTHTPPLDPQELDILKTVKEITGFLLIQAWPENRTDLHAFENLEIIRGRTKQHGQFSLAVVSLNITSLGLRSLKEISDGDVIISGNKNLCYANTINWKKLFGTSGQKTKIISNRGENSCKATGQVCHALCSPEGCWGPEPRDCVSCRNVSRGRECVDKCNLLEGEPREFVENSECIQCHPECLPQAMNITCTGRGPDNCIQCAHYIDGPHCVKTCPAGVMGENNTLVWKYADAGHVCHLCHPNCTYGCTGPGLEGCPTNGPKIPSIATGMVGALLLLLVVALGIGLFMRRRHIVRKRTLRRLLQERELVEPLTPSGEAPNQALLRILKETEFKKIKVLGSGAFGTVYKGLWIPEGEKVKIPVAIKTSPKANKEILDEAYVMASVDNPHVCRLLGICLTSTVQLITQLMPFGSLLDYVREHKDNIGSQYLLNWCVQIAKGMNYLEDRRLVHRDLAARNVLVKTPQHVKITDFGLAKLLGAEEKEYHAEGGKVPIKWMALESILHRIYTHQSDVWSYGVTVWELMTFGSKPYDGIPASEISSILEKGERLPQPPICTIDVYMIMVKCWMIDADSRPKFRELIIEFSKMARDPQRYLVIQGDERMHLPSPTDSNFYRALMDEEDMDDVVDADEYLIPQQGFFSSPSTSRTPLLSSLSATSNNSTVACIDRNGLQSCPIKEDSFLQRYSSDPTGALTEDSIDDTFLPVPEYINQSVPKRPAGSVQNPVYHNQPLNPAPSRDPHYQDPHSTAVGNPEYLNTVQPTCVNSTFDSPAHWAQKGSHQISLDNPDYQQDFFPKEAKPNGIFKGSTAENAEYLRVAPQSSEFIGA

| Compound | IC50 (EGFR Del19/C797S; [1]) [nM] | IC50 (EGFR Del19/C797S; [2]) [nM] | IC50 (EGFR L858R/C797S; [3]) [nM] | IC50 (EGFR L858R/C797S; [4]) [nM] | IC50 (EGFR Del19/T790M/C797S; [5]) [nM] | IC50 (EGFR L858R/T790M/C797S; [6]) [nM] | IC50 (EGFR wildtype (WT); [7]) [nM] | IC50 (EGFR wildtype (WT); IC50 WT (nM), 100 μM ATP) [nM] | IC50 (EGFR Del19/C797S; [8]) [nM] | IC50 (EGFR L858R/C797S; [9]) [nM] | IC50 (EGFR Del19/T790M/C797S; [10]) [nM] | IC50 (EGFR L858R/T790M/C797S; [11]) [nM] | IC50 (EGFR wildtype (WT); [12]) [nM] | IC50 (EGFR Del19/T790M/C797S; [13]) [nM] | IC50 (EGFR L858R/T790M/C797S; [14]) [nM] | IC50 (EGFR Del19/C797S; Km ATP, read-out: IC50 Del19/C797S (nM), Km ATP) [nM] | IC50 (EGFR L858R/C797S; Km ATP, read-out: IC50 L858R/C797S (nM), Km ATP) [nM] | IC50 (EGFR Del19/T790M/C797S; Km ATP, read-out: IC50 Del19/T790M/C797S (nM), Km ATP) [nM] | IC50 (EGFR L858R/T790M/C797S; Km ATP, read-out: IC50 L858R/T790M/C797S (nM), Km ATP) [nM] | IC50 (EGFR wildtype (WT); Km ATP, read-out: IC50 WT (nM), Km ATP) [nM] |
| --- | --- | --- | --- | --- | --- | --- | --- | --- | --- | --- | --- | --- | --- | --- | --- | --- | --- | --- | --- | --- |
| CN(C)C[C@H]1CC[C@@H](Nc2cc(Nc3ccnc(-c4cnn(S(=O)(=O)C5CC5)c4)n3)ncc2C#Cc2cnn(CC3CC3)c2)CC1 [Example 309, 5-((1-(Cyclopropylmethyl)-1H-pyrazol-4-yl)ethynyl)-N^2-(2-(1-(cyclopropylsulfonyl)-1H-pyrazol-4-yl)pyrimidin-4-yl)-N^4-((1s,4s)-4-((dimethylamino)methyl)cyclohexyl)pyridine-2,4-diamine] | 2.4 | 3.1 | 1 | 43.8 | 1 | 1.1 | 24.3 | 7630 |  |  |  |  |  |  |  |  |  |  |  |  |
| CC1(CO)CCN(c2cc(Nc3ccnc(-c4cnn(S(=O)(=O)C5CC5)c4)n3)ncc2C#CCN2CCS(=O)(=O)CC2)CC1 [Example 289, 4-(3-(6-((2-(1-(Cyclopropylsulfonyl)-1H-pyrazol-4-yl)pyrimidin-4-yl)amino)-4-(4-(hydroxymethyl)-4-methylpiperidin-1-yl)pyridin-3-yl)prop-2-yn-1-yl)thiomorpholine 1,1-dioxide] |  | 3 |  | 23.1 | 0.2 | 0.9 |  | 8440 |  |  |  |  |  |  |  |  |  |  |  |  |
| CC(C)(CO)CNc1cc(Nc2ccnc(-c3cnn(S(=O)(=O)C4CC4)c3)n2)ncc1C#Cc1cnn(CCF)c1 [Example 40, 3-((2-((2-(1-Cyclopropylsulfonylpyrazol-4-yl)pyrimidin-4-yl)amino)-5-(2-(1-(2-fluoroethyl)pyrazol-4-yl)ethynyl)-4-pyridyl)amino)-2,2-dimethyl-propan-1-ol] |  | 49.1 |  | 278 | 4.8 | 13.1 |  | > 10000 |  |  |  |  |  |  |  |  |  |  |  |  |
| O=S(=O)(C1CC1)n1cc(-c2nccc(Nc3cc(N4CCC(NCCO)CC4)c(C#Cc4cnn(C5CCOCC5)c4)cn3)n2)cn1 [Example 137, 2-((1-(2-((2-(1-(Cyclopropylsulfonyl)-1H-pyrazol-4-yl)pyrimidin-4-yl)amino)-5-((1-(tetrahydro-2H-pyran-4-yl)-1H-pyrazol-4-yl)ethynyl)pyridin-4-yl)piperidin-4-yl)amino)ethan-1-ol] |  | 11.7 |  | 74.2 | 0.4 | 2 |  | > 10000 | 8.8 | 5 | 0.4 | 0.4 | 174 |  |  |  |  |  |  |  |
| CC1(CO)CCN(c2cc(Nc3ccnc(-c4cnn(S(=O)(=O)C5CC5)c4)n3)ncc2C#Cc2nc(C(F)(F)F)cs2)CC1 [Example 291, (1-(2-((2-(1-(Cyclopropylsulfonyl)-1H-pyrazol-4-yl)pyrimidin-4-yl)amino)-5-((4-(trifluoromethyl)thiazol-2-yl)ethynyl)pyridin-4-yl)-4-methylpiperidin-4-yl)methanol] | 8.9 | 22.5 | 36.7 | 383 | 7.4 | 14.9 | 615 | > 10000 |  |  |  |  |  | 4.5 | 3.6 |  |  |  |  |  |
| CN1CCN(Cc2ccc(C#Cc3cnc(Nc4ccnc(-c5cnn(S(=O)(=O)C6CC6)c5)n4)cc3N[C@H]3CC[C@]4(CCC(=O)N4)CC3)cc2)CC1 [Example 362, (5s,8s)-8-((2-((2-(1-(Cyclopropylsulfonyl)-1H-pyrazol-4-yl)pyrimidin-4-yl)amino)-5-((4-((4-methylpiperazin-1-yl)methyl)phenyl)ethynyl)pyridin-4-yl)amino)-1-azaspiro[4.5]decan-2-one] |  | 1.7 |  | 3.2 | 0.7 | 0.6 |  | 4900 |  |  |  |  |  |  |  | 1.1 | 0.9 | 0.5 | 0.1 | 10.7 |
| CC1(O)CCC(Nc2cc(Nc3ccnc(-c4cnn(S(=O)(=O)C5CC5)c4)n3)ncc2C#Cc2cnn(C3CC3(F)F)c2)CC1 (stereo not drawn) [Example 326, (1s,4s)-4-((2-((2-(1-(Cyclopropylsulfonyl)-1H-pyrazol-4-yl)pyrimidin-4-yl)amino)-5-((1-(2,2-difluorocyclopropyl)-1H-pyrazol-4-yl)ethynyl)pyridin-4-yl)amino)-1-methylcyclohexan-1-ol] | 10.3 | 19.2 | 5.3 | 145 | 1.9 | 2.1 | 17.6 | > 10000 |  |  |  |  |  | 1.9 | 0.6 |  |  |  |  |  |
| CN1CCN(Cc2ccc(C#Cc3cnc(Nc4ccnc(-c5cnn(S(=O)(=O)C6CC6)c5)n4)cc3N3CCC(C)(CO)CC3)cc2)CC1 [Example 164, (1-(2-((2-(1-(Cyclopropylsulfonyl)-1H-pyrazol-4-yl)pyrimidin-4-yl)amino)-5-((4-((4-methylpiperazin-1-yl)methyl)phenyl)ethynyl)pyridin-4-yl)-4-methylpiperidin-4-yl)methanol] | 0.9 | 1.6 | 0.6 | 2.2 | 0.6 | 0.5 | 1.5 | 236 |  |  |  |  |  | 0.7 | 0.2 |  |  |  |  |  |
| Cn1cc(C#Cc2cnc(Nc3ccnc(-c4cnn(S(=O)(=O)C5CC5)c4)n3)cc2N2CCCC(CO)C2)cn1 (stereo not drawn) [Example 9, (1-(2-((2-(1-(Cyclopropylsulfonyl)-1H-pyrazol-4-yl)pyrimidin-4-yl)amino)-5-((1-methyl-1H-pyrazol-4-yl)ethynyl)pyridin-4-yl)piperidin-3-yl)methanol] |  | 3.8 |  | 27.5 | 1.9 | 1.1 |  | > 10000 | 2.8 | 2.2 | 0.7 | 0.4 | 52.8 |  |  |  |  |  |  |  |
| CN(C)Cc1ccc(CNc2cc(Nc3ccnc(-c4cnn(S(=O)(=O)C5CC5)c4)n3)ncc2C#Cc2cnn(C)c2)cc1 [Example 50, N^2-(2-(1-(Cyclopropylsulfonyl)-1H-pyrazol-4-yl)pyrimidin-4-yl)-N^4-(4-((dimethylamino)methyl)benzyl)-5-((1-methyl-1H-pyrazol-4-yl)ethynyl)pyridine-2,4-diamine] |  |  |  |  |  |  |  |  | 128 | 130 | 0.9 | 4.5 | 362 |  |  |  |  |  |  |  |
| CN1CC(n2cc(C#Cc3cnc(Nc4ccnc(-c5cnn(S(=O)(=O)C6CC6)c5)n4)cc3N3CCC(C)(CO)CC3)cn2)C1 [Example 148, (1-(2-((2-(1-(Cyclopropylsulfonyl)-1H-pyrazol-4-yl)pyrimidin-4-yl)amino)-5-((1-(1-methylazetidin-3-yl)-1H-pyrazol-4-yl)ethynyl)pyridin-4-yl)-4-methylpiperidin-4-yl)methanol] |  | 0.3 |  | 0.6 | 0.3 | 0.2 |  | 47 | 0.2 | 0.2 | 0.2 | 0.1 | 0.4 |  |  |  |  |  |  |  |
